# From patent publication US12685735B2 (Foghorn Therapeutics Inc., priority 2020, dated 2026)
# Where two headings read alike, the source gives them in different places.
# Assays:
# BRG-1 = BRG-1 (Homo sapiens, UniProt P51532); experiment: ATPase catalytic activity assay of BRG-1 (ADP-Glo); type: biochemical; settings: ATPase catalytic activity, ADP-Glo; for IC50: read-out: BRG1 IC50 (μM)*; for Emax: read-out: BRG1 Max % Inhibition
# Method in brief: (§1)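 Luminescent ADP-Glo readout of ADP generated by ATP hydrolysis. Post-reaction: ATP depletion reagent, RT 40 min; detection reagent converting ADP→ATP, RT 60 min; luminescence read.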
# BRM = BRM (Homo sapiens, UniProt P51531); experiment: ATPase catalytic activity assay of BRM (ADP-Glo); type: biochemical; settings: for IC50: read-out: BRM IC50 (μM)*
# Method in brief: as §1
# Sequence of BRG-1 (P51532 whole entry): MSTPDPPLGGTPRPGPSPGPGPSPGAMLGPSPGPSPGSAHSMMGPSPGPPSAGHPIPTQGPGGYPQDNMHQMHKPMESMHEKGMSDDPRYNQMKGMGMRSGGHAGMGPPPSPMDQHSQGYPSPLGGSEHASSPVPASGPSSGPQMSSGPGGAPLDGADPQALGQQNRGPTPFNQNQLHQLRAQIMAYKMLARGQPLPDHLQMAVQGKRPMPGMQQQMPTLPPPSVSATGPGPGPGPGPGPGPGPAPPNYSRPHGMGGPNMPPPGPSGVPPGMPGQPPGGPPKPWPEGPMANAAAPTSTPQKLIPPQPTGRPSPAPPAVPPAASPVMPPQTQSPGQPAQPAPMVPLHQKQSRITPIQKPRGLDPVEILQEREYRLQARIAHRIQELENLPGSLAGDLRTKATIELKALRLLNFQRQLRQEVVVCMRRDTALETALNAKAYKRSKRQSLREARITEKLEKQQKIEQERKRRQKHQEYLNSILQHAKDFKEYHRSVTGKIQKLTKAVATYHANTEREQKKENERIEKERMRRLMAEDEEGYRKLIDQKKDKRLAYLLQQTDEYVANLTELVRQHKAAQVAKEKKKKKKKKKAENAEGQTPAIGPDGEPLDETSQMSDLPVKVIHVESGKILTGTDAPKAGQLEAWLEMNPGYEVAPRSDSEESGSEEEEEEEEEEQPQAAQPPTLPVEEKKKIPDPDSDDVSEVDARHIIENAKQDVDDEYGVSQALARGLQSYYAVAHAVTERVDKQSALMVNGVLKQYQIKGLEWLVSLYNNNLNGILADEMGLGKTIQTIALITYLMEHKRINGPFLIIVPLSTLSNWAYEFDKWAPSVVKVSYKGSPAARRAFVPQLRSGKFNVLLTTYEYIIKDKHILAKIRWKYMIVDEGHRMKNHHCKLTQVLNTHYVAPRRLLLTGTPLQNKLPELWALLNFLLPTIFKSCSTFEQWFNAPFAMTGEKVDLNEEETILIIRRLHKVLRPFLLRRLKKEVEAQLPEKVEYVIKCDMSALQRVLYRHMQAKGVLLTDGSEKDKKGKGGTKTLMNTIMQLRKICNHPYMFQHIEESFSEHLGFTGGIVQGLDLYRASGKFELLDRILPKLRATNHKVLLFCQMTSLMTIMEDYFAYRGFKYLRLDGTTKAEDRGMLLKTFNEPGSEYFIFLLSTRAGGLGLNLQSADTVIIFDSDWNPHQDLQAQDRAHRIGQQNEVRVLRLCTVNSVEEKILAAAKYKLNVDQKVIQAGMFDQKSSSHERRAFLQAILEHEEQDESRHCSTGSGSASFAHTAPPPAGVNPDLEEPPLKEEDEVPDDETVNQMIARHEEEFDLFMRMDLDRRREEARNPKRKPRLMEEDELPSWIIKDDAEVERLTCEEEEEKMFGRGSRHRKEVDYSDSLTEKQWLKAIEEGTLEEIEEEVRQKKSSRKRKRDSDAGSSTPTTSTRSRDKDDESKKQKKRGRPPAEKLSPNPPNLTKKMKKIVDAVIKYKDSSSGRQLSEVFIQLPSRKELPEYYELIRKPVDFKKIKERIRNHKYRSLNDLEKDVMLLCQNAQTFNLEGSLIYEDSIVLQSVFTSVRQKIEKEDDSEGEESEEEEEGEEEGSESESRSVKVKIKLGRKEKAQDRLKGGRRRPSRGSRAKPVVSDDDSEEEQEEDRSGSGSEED
# Sequence of BRM (P51531 whole entry): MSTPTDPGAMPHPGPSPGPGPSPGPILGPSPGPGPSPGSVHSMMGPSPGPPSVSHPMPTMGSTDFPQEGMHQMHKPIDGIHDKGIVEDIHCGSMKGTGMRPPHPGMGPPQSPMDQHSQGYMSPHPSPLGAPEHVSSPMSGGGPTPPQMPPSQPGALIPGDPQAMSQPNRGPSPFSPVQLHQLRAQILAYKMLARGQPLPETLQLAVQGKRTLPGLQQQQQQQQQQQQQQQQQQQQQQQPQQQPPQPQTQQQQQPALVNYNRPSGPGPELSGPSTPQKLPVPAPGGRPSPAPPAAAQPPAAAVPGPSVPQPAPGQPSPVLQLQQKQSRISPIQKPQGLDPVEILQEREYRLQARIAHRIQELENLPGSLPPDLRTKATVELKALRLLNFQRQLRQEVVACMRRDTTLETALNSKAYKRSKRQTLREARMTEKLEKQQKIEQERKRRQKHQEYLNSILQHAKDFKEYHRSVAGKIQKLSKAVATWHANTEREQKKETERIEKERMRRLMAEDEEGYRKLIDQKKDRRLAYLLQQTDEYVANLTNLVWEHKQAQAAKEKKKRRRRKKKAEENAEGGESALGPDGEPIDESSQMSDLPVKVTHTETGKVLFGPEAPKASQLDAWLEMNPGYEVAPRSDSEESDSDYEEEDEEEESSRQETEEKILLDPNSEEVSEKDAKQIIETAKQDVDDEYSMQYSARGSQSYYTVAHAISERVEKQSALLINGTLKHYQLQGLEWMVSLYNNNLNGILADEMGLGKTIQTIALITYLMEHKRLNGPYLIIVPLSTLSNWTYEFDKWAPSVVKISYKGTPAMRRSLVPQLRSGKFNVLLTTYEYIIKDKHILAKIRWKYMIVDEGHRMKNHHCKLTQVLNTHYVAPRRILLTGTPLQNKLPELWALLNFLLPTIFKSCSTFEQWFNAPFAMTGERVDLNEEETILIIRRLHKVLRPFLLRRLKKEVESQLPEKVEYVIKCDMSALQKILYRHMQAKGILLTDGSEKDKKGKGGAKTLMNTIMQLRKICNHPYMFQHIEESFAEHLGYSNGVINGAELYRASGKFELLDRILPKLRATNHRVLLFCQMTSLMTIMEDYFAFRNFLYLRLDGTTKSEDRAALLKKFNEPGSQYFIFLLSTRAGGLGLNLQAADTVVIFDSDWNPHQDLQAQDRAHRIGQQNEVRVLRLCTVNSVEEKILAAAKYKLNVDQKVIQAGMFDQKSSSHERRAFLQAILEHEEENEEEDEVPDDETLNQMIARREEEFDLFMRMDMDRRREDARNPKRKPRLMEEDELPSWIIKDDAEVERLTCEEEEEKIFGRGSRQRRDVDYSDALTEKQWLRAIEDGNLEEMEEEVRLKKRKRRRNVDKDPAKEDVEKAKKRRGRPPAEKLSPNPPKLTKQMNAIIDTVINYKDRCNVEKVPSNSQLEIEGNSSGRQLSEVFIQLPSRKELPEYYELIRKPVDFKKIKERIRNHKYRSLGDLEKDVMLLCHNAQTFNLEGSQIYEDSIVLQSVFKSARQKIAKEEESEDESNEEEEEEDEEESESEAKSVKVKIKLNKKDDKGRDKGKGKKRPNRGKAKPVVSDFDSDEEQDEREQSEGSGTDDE
SMILES,IC50 (BRG-1) [µM],Emax (BRG-1) [%],BRM Max % Inhibition (BRM) [%],IC50 (BRM) [µM],"IC50 (BRG-1; 30 nM BRG-1, 400 μM ATP) [µM]","Emax (BRG-1; 30 nM BRG-1, 400 μM ATP) [%]","BRM Max % Inhibition (BRM; 30 nM BRM, 400 μM ATP) [%]","IC50 (BRM; 30 nM BRM, 400 μM ATP) [µM]",BRG1 Max % Inhibition (BRG-1) [%]
"Cn1ncc(-c2cccc(-c3csc(NC(=O)CNC(=O)c4cccc(C(C)(C)CO)c4)n3)n2)n1 [Compound 154, 3-(1-hydroxy-2-methylpropan-2-yl)-N-(2-((4-(6-(2-methyl-2H-1,2,3-triazol-4-yl)pyridin-2-yl)thiazol-2-yl)amino)-2-oxoethyl)benzamide]",1 to 5,> 60,>90,0.1 to 1,–,–,–,–,–
"C[C@@]1(F)COCc2ccc(C(=O)NCC(=O)Nc3nc(C4CCOCC4)cs3)cc21 [Compound 297, (S)-4-fluoro-4-methyl-N-(2-oxo-2-((4-(tetrahydro-2H-pyran-4-yl)thiazol-2-yl)amino)ethyl)isochromane-6-carboxamide]",1 to 5,> 85,>95,0.1 to 1,–,–,–,–,–
Cc1nccc(-c2cccc(-c3csc(NC(=O)CNC(=O)c4cccc(C(C)(C)CN)c4)n3)c2)n1 [Compound 95],0.1 to 1,> 90,>95,< 0.1,–,–,–,–,–
"CC1(F)COCc2ccc(C(=O)NCC(=O)Nc3nc(-c4cccc(N5CCC5)c4)cs3)cc21 (centres unmarked) [Compound 356, N-(2-((4-(3-(azetidin-1-yl)phenyl)thiazol-2-yl)amino)-2-oxoethyl)-4-fluoro-4-methylisochromane-6-carboxamide]",0.1 to 1,> 95,>95,< 0.1,–,–,–,–,–
"CC1OCCc2cc(C(=O)NCC(=O)Nc3nc(-c4cccc(N5C[C@@H](C)O[C@@H](C)C5)n4)cs3)ccc21 (stereo partly drawn) [Compound 271, N-(2-((4-(6-((cis)-2,6-dimethylmorpholino)pyridin-2-yl)thiazol-2-yl)amino)-2-oxoethyl)-1-methylisochromane-6-carboxamide]",1 to 5,> 85,>85,0.1 to 1,–,–,–,–,–
"C[C@@H]1CN(c2cccc(-c3csc(NC(=O)CNC(=O)c4ccc5c(c4)[C@]4(CCC[C@H]4O)CC5)n3)c2)C[C@H](C)O1 [Compound 256, (1S,2R)-N-(2-((4-(3-((cis)-2,6-dimethylmorpholino)phenyl)thiazol-2-yl)amino)-2-oxoethyl)-2-hydroxy-2′,3′-dihydrospiro[cyclopentane-1,1′-indene]-6′-carboxamide]",> 5,< 30,>60,1 to 5,–,–,–,–,–
"C[C@@]1(C#N)COCc2ccc(C(=O)NCC(=O)Nc3nc(-c4cc(F)c5c(c4)CCO5)cs3)cc21 [Compound 352, (R)-4-cyano-N-(2-((4-(7-fluoro-2,3-dihydrobenzofuran-5-yl)thiazol-2-yl)amino)-2-oxoethyl)-4-methylisochromane-6-carboxamide]",< 0.1,> 95,>95,< 0.1,–,–,–,–,–
"C[C@@H]1CN(c2cccc(-c3csc(NC(=O)CNC(=O)c4ccc5c(c4)S(=O)(=O)CCC5)n3)c2)C[C@H](C)O1 [Compound 396, N-(2-((4-(3-((cis)-2,6-dimethylmorpholino)phenyl)thiazol-2-yl)amino)-2-oxoethyl)thiochromane-7-carboxamide 1,1-dioxide]",1 to 5,> 90,>90,0.1 to 1,–,–,–,–,–
"CC(C)(CN)c1cccc(C(=O)NCC(=O)Nc2nc(-c3cccc(-c4ccnc(N)c4)c3)cs2)c1 [Compound 59, 3-(1-amino-2-methylpropan-2-yl)-N-(2-((4-(3-(2-aminopyridin-4-yl)phenyl)thiazol-2-yl)amino)-2-oxoethyl)benzamide]",0.1 to 1,> 80,>95,< 0.1,–,–,–,–,–
"CC1(C#N)CCOc2ccc(C(=O)NCC(=O)Nc3nc(-c4cccc(N5CCC5)c4)cs3)cc21 (stereo in doubt) [Compound 416, (S)-N-(2-((4-(3-(azetidin-1-yl)phenyl)thiazol-2-yl)amino)-2-oxoethyl)-4-cyano-4-methylchromane-6-carboxamide]",–,–,–,–,0.1 to 1,> 95,>95,< 0.1,–
"COc1cc(-c2csc(NC(=O)CNC(=O)c3ccc4c(c3)[C@](C)(C#N)COC4)n2)ccc1F [Compound 399, (R)-4-cyano-N-(2-((4-(4-fluoro-3-methoxyphenyl)thiazol-2-yl)amino)-2-oxoethyl)-4-methylisochromane-6-carboxamide]",0.1 to 1,> 95,>95,< 0.1,–,–,–,–,–
"CC1(C#N)CCc2ccc(C(=O)NCC(=O)Nc3nc(-c4cccc(-c5ccncc5)c4)cs3)cc21 (single isomer, unassigned) [Compound 103]",< 0.1,–,>95,< 0.1,–,–,–,–,>95
"C[C@@H]1CN(c2cccc(-c3csc(NC(=O)CNC(=O)c4cccc5c4OCC[C@@]5(C)CO)n3)c2)C[C@H](C)O1 [Compound 138, (R)-N-(2-((4-(3-((cis)-2,6-dimethylmorpholino)phenyl)thiazol-2-yl)amino)-2-oxoethyl)-4-(hydroxymethyl)-4-methylchroman-8-carboxamide]",> 5,> 50,>90,0.1 to 1,–,–,–,–,–
"C[C@@H]1CN(c2cccc(-c3csc(NC(=O)CNC(=O)c4cccc(C5(F)CC6(COC6)C5)c4)n3)n2)C[C@H](C)O1 [Compound 318, N-(2-((4-(6-((cis)-2,6-dimethylmorpholino)pyridin-2-yl)thiazol-2-yl)amino)-2-oxoethyl)-3-(6-fluoro-2-oxaspiro[3.3]heptan-6-yl)benzamide]",> 5,> 90,>90,0.1 to 1,–,–,–,–,–
"Cc1nccc(-c2cccc(-c3csc(NC(=O)CNC(=O)c4ccc(C)c(C(C)(C)CN)c4)n3)n2)n1 [Compound 206, 3-(2-amino-1,1-dimethyl-ethyl)-4-methyl-N-[2-[[4-[6-(2-methylpyrimidin-4-yl)-2-pyridyl]thiazol-2-yl]amino]-2-oxo-ethyl]benzamide]",1 to 5,> 70,>95,0.1 to 1,–,–,–,–,–
"C[C@@]1(C#N)COCc2ccc(C(=O)NCC(=O)Nc3nc(-c4cccc([C@H]5CC5(F)F)c4)cs3)cc21 [Compound 391, (R)-4-cyano-N-(2-((4-(3-((R)-2,2-difluorocyclopropyl)phenyl)thiazol-2-yl)amino)-2-oxoethyl)-4-methylisochromane-6-carboxamide]",0.1 to 1,> 95,>95,< 0.1,–,–,–,–,–
"C[C@@H]1CN(c2cccc(-c3csc(NC(=O)CNC(=O)c4cncc(C(C)(C)C)c4)n3)c2)C[C@H](C)O1 [Compound 443, 5-(tert-butyl)-N-(2-((4-(3-((cis)-2,6-dimethylmorpholino)phenyl)thiazol-2-yl)amino)-2-oxoethyl)nicotinamide]",–,–,–,–,0.1 to 1,> 95,>95,< 0.1,–
"CC(C)S(=O)(=O)c1cccc(C(=O)NCC(=O)Nc2nc(-c3cccc(-c4cc(CO)cc(C(F)(F)F)c4)c3)cs2)c1 [Compound 27, N-(2-((4-(3′-(hydroxymethyl)-5′-(trifluoromethyl)-[1,1′-biphenyl]-3-yl)thiazol-2-yl)amino)-2-oxoethyl)-3-(isopropylsulfonyl)benzamide]",0.1 to 1,–,>95,< 0.1,–,–,–,–,–
